# Source: patent US10053477B2, “Spirocyclic aryl phosphorus oxide and aryl phosphorus sulfide” (QILU PHARMACEUTICAL CO., LTD., priority 2014, dated 2018)
# Key:
# [1] = tested on: LU-01-0319 xenotransplantation (PDX) from lung cancer patients; experiment: In vivo efficacy, LU-01-0319 xenotransplantation (PDX) from lung cancer patients; set-up: species or system BALB/c nude mice; conditions: 10 mg/kg orally everyday
# Description: (§1) BALB/c nude mice, female, 6 to 8 weeks, about 18 to 22 g bodyweight, was kept in a special environment without pathogens, and a single ventilated cage (5 mice per cage). Beddings and water in all the cages were disinfected before use. All the animal had free access to standard authorized commercially available lab diet. 80 mice were supplied by Shanghai BK Laboratory Animal Co., LTD for study. Each mouse was subcutaneously implanted tumor tissue (20-30 mm^3) at right flank for growth of tumor. When the average tumor volume reached about 250-300 mm^3, the assay started. Test compounds were delivered orally everyday, 10 mg/kg. Tumor size was measured with two-dimensional caliper every 3 days, size was recorded by mm^3, and calculated by the following formula: V=V=0.5a×b2, where a and b are respectively the long diameter and short diameter length of the tumor. The antitumor efficacy was determined by dividing the average increased tumor volume in compound-treated animal by the average increased tumor volume in untreated animal.
# [2] = tested on: LU-01-0015 xenotransplantation (PDX) from lung cancer patients; experiment: In vivo efficacy, LU-01-0015 xenotransplantation (PDX) from lung cancer patients; set-up: species or system BALB/c nude mice; conditions: for Tumor volume: 25 mg/kg orally everyday
# Description: as §1, with “All the animal had free access to standard authorized commercially available lab diet.” left out, “25” for “10”
# [3] = tested on: LU-01-0319 Crizotinib resistance model; experiment: In vivo anti-tumor efficacy, Crizotinib resistant LU-01-0319 xenotransplantation (PDX) tumor; set-up: species or system BALB/c nude mice
# Description: LU-01-0319 xenotransplantation tumor models initially obtained from clinical sample through surgical resection were implanted into nude mice, which was defined as a batch of P0 (LU-01-0319-P0). The next batch was defined as P1 (LU-01-0319-P1) which was implanted tumors from P0. FP3 was regained from P2, the next batch was defined as FP4 which was implanted tumors from FP3. […] The continuous increasing tumors were defined as LU-01-0319 antitumor models. BALB/c nude mice, female, 6 to 8 weeks, about 18 to 22 g bodyweight, 75 mice were used for study, supplied by Shanghai BK Laboratory Animal Co., LTD. Tumour biopsies (about 30 mm^3) of LU-01-0319R FP6 were implanted subcutaneously on right side of each mouse for growth of tumor. […] Dose of Crizotinib was appropriately varied depending on the tumor size. When average tumor volume reached about ˜500 mm^3, the assay began. Once a day the compounds to be tested were orally administered. Tumor size were measured twice a week with a caliper at two dimensions, and calculated with the following formula: V=0.5a×b2, where a and b are respectively long diameter and short diameter of the tumor. The antitumor efficacy was determined by dividing the average increased tumor volume in compound-treated animal by the average increased tumor volume in untreated animal.
# ALK C1156Y = target: T1, ALK C1156Y (Homo sapiens, UniProt Q9UM73, C1156Y); experiment: ALK C1156Y enzymatic inhibition (HTRF); type: biochemical; conditions: 30 μM ATP
# T1 construct: purchased Carna Biosciences (Japan)
# T1 sequence (Q9UM73 19-1620 C1156Y): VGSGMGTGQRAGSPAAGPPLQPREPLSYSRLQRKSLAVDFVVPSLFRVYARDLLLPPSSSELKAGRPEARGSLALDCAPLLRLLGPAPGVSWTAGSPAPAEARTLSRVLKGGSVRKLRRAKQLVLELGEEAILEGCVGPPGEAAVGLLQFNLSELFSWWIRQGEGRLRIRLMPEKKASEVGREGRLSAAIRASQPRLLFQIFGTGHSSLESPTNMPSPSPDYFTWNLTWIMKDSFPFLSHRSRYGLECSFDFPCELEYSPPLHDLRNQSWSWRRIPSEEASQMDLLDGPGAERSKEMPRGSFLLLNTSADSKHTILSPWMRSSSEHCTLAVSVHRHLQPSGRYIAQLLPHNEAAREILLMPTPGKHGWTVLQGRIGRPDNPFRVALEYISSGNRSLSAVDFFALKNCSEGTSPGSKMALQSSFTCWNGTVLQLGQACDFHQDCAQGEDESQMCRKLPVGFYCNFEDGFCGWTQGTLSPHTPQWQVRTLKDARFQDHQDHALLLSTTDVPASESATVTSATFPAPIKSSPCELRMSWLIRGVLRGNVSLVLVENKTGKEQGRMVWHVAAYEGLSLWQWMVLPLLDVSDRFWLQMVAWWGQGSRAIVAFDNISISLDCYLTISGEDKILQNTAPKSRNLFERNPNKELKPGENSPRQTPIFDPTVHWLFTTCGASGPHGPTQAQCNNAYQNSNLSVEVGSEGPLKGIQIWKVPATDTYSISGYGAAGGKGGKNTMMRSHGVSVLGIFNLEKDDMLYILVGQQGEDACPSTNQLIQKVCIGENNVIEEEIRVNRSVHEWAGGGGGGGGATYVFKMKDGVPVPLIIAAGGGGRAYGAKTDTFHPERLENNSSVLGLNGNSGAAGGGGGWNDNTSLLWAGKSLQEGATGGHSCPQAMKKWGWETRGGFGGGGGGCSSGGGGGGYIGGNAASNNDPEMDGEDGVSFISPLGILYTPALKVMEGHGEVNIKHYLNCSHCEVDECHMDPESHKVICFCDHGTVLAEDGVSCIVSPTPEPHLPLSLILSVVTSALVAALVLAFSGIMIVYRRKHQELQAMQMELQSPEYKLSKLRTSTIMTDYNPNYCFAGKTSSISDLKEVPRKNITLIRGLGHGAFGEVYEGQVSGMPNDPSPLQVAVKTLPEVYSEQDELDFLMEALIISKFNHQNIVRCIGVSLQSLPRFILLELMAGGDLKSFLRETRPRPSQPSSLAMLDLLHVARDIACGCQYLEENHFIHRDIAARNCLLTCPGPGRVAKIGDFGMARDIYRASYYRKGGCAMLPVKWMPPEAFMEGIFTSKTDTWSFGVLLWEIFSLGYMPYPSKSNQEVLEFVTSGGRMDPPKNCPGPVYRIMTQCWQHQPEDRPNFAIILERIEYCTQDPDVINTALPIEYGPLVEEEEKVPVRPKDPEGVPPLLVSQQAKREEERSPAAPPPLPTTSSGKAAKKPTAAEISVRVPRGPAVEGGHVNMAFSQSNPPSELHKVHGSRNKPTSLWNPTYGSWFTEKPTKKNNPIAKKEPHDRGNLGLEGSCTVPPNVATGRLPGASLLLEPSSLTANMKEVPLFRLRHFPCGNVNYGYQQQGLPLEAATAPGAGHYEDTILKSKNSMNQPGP
# Protocol: (§2) Enzyme: ALK wild-type, ALK C1156Y and ALK L1196M supplied by Carna Biosciences (Japan), EGFR T790M/L858R supplied by Life technology (Madison, Wis.).
# (§3) HTRF kit: supplied by Cis-Bio International, with Eu-marked TK1 antibody, XL665- and biotin-labelled TK1 polypeptide substrates.
# Reaction buffer: 50 mM Hepes (pH7.5), 10 mM MgCl2, 0.01 mM NaV3VO4. […] Reaction was reacted at room temperature for 60 minutes.
# (§4) Incubation was carried out for 60 minutes at room temperature. Detection was by Envision.
# ALK wild-type = target: T2, ALK wild-type (Homo sapiens, UniProt Q9UM73); experiment: ALK wild-type enzymatic inhibition (HTRF); type: biochemical; conditions: 30 μM ATP
# T2 construct: purchased Carna Biosciences (Japan)
# T2 sequence (Q9UM73 19-1620): as the sequence (Q9UM73 19-1620 C1156Y) above, with Y1138C counted along it
# Protocol: as §2, §3
# 10 μl wild-type ALK enzyme reaction mixture system: 0.5 nM wild-type ALK, 1 μM biotin-TK1 peptide, 30 μM ATP. Reaction buffer: 50 mM Hepes (pH7.5), 10 mM MgCl2, 0.01 mM NaV3VO4.
# as §4
# EGFR T790M/L858R = target: T3, EGFR T790M/L858R (Homo sapiens, UniProt P00533, L858R/T790M); experiment: EGFR T790M/L858R enzymatic inhibition (HTRF); type: biochemical; conditions: 20 μM ATP
# T3 construct: purchased Life technology (Madison, Wis.)
# T3 sequence (P00533 25-1210 T790M/L858R): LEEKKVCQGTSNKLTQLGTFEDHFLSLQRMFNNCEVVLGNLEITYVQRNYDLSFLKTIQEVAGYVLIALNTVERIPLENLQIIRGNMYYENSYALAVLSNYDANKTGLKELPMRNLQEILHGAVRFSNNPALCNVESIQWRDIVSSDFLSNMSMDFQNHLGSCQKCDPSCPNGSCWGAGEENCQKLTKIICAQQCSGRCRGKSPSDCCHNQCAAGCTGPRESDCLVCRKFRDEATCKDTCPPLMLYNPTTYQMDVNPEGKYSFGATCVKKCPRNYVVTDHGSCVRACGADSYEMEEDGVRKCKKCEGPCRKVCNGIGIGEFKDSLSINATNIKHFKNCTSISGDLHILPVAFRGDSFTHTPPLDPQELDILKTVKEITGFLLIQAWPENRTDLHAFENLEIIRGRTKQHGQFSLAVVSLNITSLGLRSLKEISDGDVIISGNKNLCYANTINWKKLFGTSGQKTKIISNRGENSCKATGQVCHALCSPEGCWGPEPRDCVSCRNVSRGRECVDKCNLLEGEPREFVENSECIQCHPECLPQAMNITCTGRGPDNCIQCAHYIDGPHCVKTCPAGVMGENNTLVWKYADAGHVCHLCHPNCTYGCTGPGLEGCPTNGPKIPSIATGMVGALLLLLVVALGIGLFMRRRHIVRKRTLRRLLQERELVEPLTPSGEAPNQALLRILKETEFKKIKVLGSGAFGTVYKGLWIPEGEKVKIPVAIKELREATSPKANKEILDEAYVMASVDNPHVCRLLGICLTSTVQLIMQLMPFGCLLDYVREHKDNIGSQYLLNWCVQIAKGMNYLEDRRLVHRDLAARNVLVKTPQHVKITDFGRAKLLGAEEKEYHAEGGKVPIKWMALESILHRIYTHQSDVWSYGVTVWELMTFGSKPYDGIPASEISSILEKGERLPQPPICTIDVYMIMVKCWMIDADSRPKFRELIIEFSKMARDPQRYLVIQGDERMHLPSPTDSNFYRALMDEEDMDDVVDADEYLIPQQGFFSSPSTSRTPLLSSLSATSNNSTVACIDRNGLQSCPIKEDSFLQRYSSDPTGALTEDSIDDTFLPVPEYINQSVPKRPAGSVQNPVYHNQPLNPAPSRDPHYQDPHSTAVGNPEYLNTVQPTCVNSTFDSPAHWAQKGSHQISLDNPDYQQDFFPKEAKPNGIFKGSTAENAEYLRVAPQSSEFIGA
# Protocol: as §2, §3
# The compound to be tested is diluted at a gradient by 3 times thereby giving 11 gradients starting from […] to 0.017 nM for the final concentration.
# 10 μl EGFR T790M/L858R enzyme reaction mixture system: 0.08 nM EGFR T790M/L858R, 1 μM biotin-TK1 peptide, 20 μM ATP. Reaction buffer: 50 mM Hepes (pH7.5), 10 mM MgCl2, 0.01 mM NaV3VO4. The reaction plate was white Proxiplate 384-Plus plate (PerkinElmer). Reaction was reacted at room temperature for 60 minutes.
# Detecting reaction: 10 μl testing reagent was added to the reaction plate, the final concentration of Antibody was 2 nM, XL665 was 62.5 nM. Incubation was carried out for 60 minutes at room temperature. Detection was by Envision.
# ALK L1196M = target: T4, ALK L1196M (Homo sapiens, UniProt Q9UM73, L1196M); experiment: ALK L1196M enzymatic inhibition (HTRF); type: biochemical; conditions: 30 μM ATP
# T4 construct: purchased Carna Biosciences (Japan)
# T4 sequence (Q9UM73 19-1620 L1196M): as the sequence (Q9UM73 19-1620 C1156Y) above, with Y1138C, L1178M counted along it
# Protocol: as §2, §3
# Reaction buffer: 50 mM Hepes (pH7.5), 10 mM MgCl2, 0.01 mM NaV3VO4.
# as §4
smiles,measurement,setting,value
"COc1cc(N2CCC(N3CCN(C)CC3)CC2)ccc1Nc1ncc(Cl)c(Nc2ccccc2P(C)(C)=O)n1 [AP26113, reference compound]",Tumor volume,[1]; 0 days,371 mm^3
same,Tumor volume,[1]; 2 days,437 mm^3
same,Tumor volume,[1]; 6 days,448 mm^3
same,Tumor volume,[1]; 9 days,485 mm^3
same,Tumor volume,[1]; 13 days,512 mm^3
same,Tumor volume,[1]; 16 days,492 mm^3
same,Tumor volume,[1]; 20 days,457 mm^3
same,Tumor volume,[1]; 23 days,391 mm^3
same,Tumor volume,[2]; 3 days,207 mm^3
same,Tumor volume,[2]; 6 days,174 mm^3
same,Tumor volume,[2]; 9 days,162 mm^3
same,Tumor volume,[2]; 12 days,142 mm^3
same,Tumor volume,[2]; 16 days,119 mm^3
same,Tumor volume,[2]; 19 days,122 mm^3
same,Tumor volume,[2]; 23 days,119 mm^3
same,tumor volume was reduced to (from 277 mm^3),"[2]; after 16 days, 25 mg/kg",119 mm^3
same,Tumor volume,"[3]; 0 day, dosage 3 mg/Kg orally once a day",501 mm^3
same,Tumor volume,"[3]; 0 day, dosage 10 mg/Kg orally once a day",502 mm^3
same,Tumor volume,"[3]; 3 days, dosage 3 mg/Kg orally once a day",656 mm^3
same,Tumor volume,"[3]; 3 days, dosage 10 mg/Kg orally once a day",646 mm^3
same,Tumor volume,"[3]; 7 days, dosage 3 mg/Kg orally once a day",690 mm^3
same,Tumor volume,"[3]; 7 days, dosage 10 mg/Kg orally once a day",604 mm^3
same,Tumor volume,"[3]; 10 days, dosage 3 mg/Kg orally once a day",898 mm^3
same,Tumor volume,"[3]; 10 days, dosage 10 mg/Kg orally once a day",593 mm^3
same,Tumor volume,"[3]; 13 days, dosage 3 mg/Kg orally once a day",1096 mm^3
same,Tumor volume,"[3]; 13 days, dosage 10 mg/Kg orally once a day",504 mm^3
same,Tumor volume,"[3]; 17 days, dosage 3 mg/Kg orally once a day",1415 mm^3
same,Tumor volume,"[3]; 17 days, dosage 10 mg/Kg orally once a day",568 mm^3
same,Tumor volume,"[3]; 19 days, dosage 3 mg/Kg orally once a day",1499 mm^3
same,Tumor volume,"[3]; 19 days, dosage 10 mg/Kg orally once a day",508 mm^3
"COc1ccc(C2CC3(CCN(C)C3)C2)cc1Nc1ncc(Cl)c(Nc2ccccc2P(C)(C)=O)n1 (centres unmarked) [Compound 1, (2-((5-chloro-2-((2-methoxy-5-(6-methyl-6-azaspiro[3.4]octan-2-yl)phenyl)amino)pyrimidin-4-yl)amino)phenyl)dimethylphosphine oxide]",IC50,ALK C1156Y,0.101 to 1 µM
same,IC50,ALK wild-type,0.001 to 0.1 µM
same,IC50,EGFR T790M/L858R,0.101 to 1 µM
same,IC50,ALK L1196M,0.101 to 1 µM
"COc1ccc(C2CC3(CC(=O)N(C)C3)C2)cc1Nc1ncc(Cl)c(Nc2ccccc2P(C)(C)=O)n1 (centres unmarked) [Compound 2, 2-(3-((5-Chloro-4-((2-(dimethylphosphoryl)phenyl)amino)pyrimidin-2-yl)amino)-4-methoxyphen-yl)-6-methyl-6-azaspiro[3.4]octan-7-one]",IC50,ALK C1156Y,0.101 to 1 µM
same,IC50,ALK wild-type,0.101 to 1 µM
same,IC50,EGFR T790M/L858R,0.101 to 1 µM
same,IC50,ALK L1196M,0.101 to 1 µM
"COc1cc(N2CCC3(CN(C)C3)C2)ccc1Nc1ncc(Cl)c(Nc2ccccc2P(C)(C)=O)n1 [Compound 7, (2-((5-Chloro-2-((2-methoxy-4-(2-methyl-2,6-diazaspiro[3.4]octan-6-yl)phenyl)amino)pyrimidin-4-yl)amino)phenyl)dimethyl phosphine oxide]",IC50,ALK C1156Y,0.101 to 1 µM
same,IC50,ALK wild-type,0.001 to 0.1 µM
same,IC50,EGFR T790M/L858R,0.101 to 1 µM
same,IC50,ALK L1196M,0.101 to 1 µM
"COc1cc(N2CCC3(CC2)CCN(C(C)C)CC3)ccc1Nc1ncc(Cl)c(Nc2ccccc2P(C)(C)=O)n1 [Compound 10, (2-((5-Chloro-2-((4-(9-isopropyl-3,9-diazaspiro[5.5]undecan-3-yl)-2-methoxyphenyl)amino)pyrimidin-4-yl)amino)phenyl)dimethyl phosphine oxide]",IC50,ALK C1156Y,0.001 to 0.1 µM
same,IC50,ALK wild-type,0.001 to 0.1 µM
same,IC50,EGFR T790M/L858R,0.001 to 0.1 µM
same,IC50,ALK L1196M,0.001 to 0.1 µM
"COc1cc(N2CCC3(CC2)CC(N(C)C)C3)ccc1Nc1ncc(Cl)c(Nc2ccccc2P(C)(C)=O)n1 [Compound 13, (2-((5-Chloro-2-((4-(2-(dimethylamino)-7-azaspiro[3.5]nonan-7-yl)-2-methoxyphenyl)amino)pyrimidin-4-yl)amino)phenyl)dimethyl phosphine oxide]",IC50,ALK C1156Y,0.001 to 0.1 µM
same,IC50,ALK wild-type,0.001 to 0.1 µM
same,IC50,EGFR T790M/L858R,0.001 to 0.1 µM
same,IC50,ALK L1196M,0.001 to 0.1 µM
"COc1cc(N2CCC3(CCC(N(C)C)CC3)CC2)ccc1Nc1ncc(Cl)c(Nc2ccccc2P(C)(C)=O)n1 [Compound 14, (2-((5-Chloro-2-((4-(9-(dimethylamino)-3-azaspiro[5.5]undecan-3-yl)-2-methoxyphenyl)amino)pyrimidin-4-yl)amino)phenyl)dimethyl phosphine oxide]",IC50,ALK C1156Y,0.001 to 0.1 µM
same,IC50,ALK wild-type,0.001 to 0.1 µM
same,IC50,EGFR T790M/L858R,0.001 to 0.1 µM
same,IC50,ALK L1196M,0.001 to 0.1 µM
"COc1cc(N2CCC3(CCN(C)CC3)CC2)ccc1Nc1ncc(C(F)(F)F)c(Nc2ccccc2P(C)(C)=O)n1 [Compound 15, (2-((2-((2-Methoxy-4-(9-methyl-3,9-diazaspiro[5.5]undecan-3-yl)phenyl)amino)-5-(trifluoromethyl)pyrimidin-4-yl)amino)phenyl)dimethyl phosphine oxide]",IC50,ALK C1156Y,> 1 µM
same,IC50,ALK wild-type,> 1 µM
same,IC50,EGFR T790M/L858R,> 1 µM
same,IC50,ALK L1196M,0.101 to 1 µM
"COc1cc(N2CCC3(CCN(C)CC3)CC2)ccc1Nc1ncnc(Nc2ccccc2P(C)(C)=O)n1 [Compound 16, (2-((4-((2-Methoxy-4-(9-methyl-3,9-diazaspiro[5.5]undecan-3-yl)phenyl)amino)-1,3,5-triazin-2-yl)amino)phenyl)dimethyl phosphine oxide]",IC50,ALK C1156Y,0.101 to 1 µM
same,IC50,ALK wild-type,0.101 to 1 µM
same,IC50,EGFR T790M/L858R,0.001 to 0.1 µM
same,IC50,ALK L1196M,0.101 to 1 µM
"COc1cc(N2CCC3(CCN(C)CC3)CC2)ccc1Nc1nc(Nc2ccccc2P(C)(C)=O)c2cc[nH]c2n1 [Compound 17, (2-((2-(amino)-7H-pyrrolo[2,3-D](2-methoxy-4-(9-methyl-3,9-diazaspiro[5.5]undecan-3-yl)phenyl)pyrimidin-4-yl)amino)phenyl)dimethyl phosphine oxide]",IC50,ALK C1156Y,0.001 to 0.1 µM
same,IC50,ALK wild-type,0.001 to 0.1 µM
same,IC50,EGFR T790M/L858R,0.001 to 0.1 µM
same,IC50,ALK L1196M,0.001 to 0.1 µM
Cc1cc(Nc2ncc(Cl)c(Nc3ccccc3S(=O)(=O)C(C)C)n2)c(OC(C)C)cc1C1CCNCC1 [LDK378],Tumor volume,[1]; 0 days,373 mm^3
same,Tumor volume,[1]; 2 days,397 mm^3
same,Tumor volume,[1]; 6 days,366 mm^3
same,Tumor volume,[1]; 9 days,350 mm^3
same,Tumor volume,[1]; 13 days,425 mm^3
same,Tumor volume,[1]; 16 days,369 mm^3
same,Tumor volume,[1]; 20 days,329 mm^3
same,Tumor volume,[1]; 23 days,268 mm^3
